Results as given in patent US20240299488A1, “METHODS AND COMPOSITIONS FOR IMPROVING VISUAL FUNCTION IN OCULAR DISEASES AND DISORDERS” (ONL Therapeutics, Inc., priority 2021, published 2024).
Several values for one entry are separate records, joined by “and”; a condition that tells them apart may be missing. Equal values may be shown once. Ends that are not written are not given here.

What was measured:
Type in all cases: in vivo, human
[1] = test system: patients having macular degeneration characterized by geographic atrophy (GA); experiment: Example I: BCVA in GA patients after single intravitreal injection
IL18 = experiment: Example 2: change in cytokine level in ocular fluid samples, IL18
Description: (§1) The primary objective was to determine the Maximum Tolerated Dose (MTD) of a peptide an amino acid sequence […] and the structure of Formula III (ONL1204) and select doses for further clinical studies. During the study, ocular fluid samples were also collected at the time of study drug injection and at the time of vitrectomy. These samples were used for pharmacokinetic and pharmacodynamic analyses.
(§2) Patients were enrolled in ascending dose groups. […] Safety visits were conducted one day post-injection and as deemed necessary by the examining Investigator (at least 1 visit every 3 days) until Visit 3. At Visit 3 (3+ days post-injection, in accordance with standard of care) patients underwent surgical repair of their retinal detachment with vitrectomy (with or without scleral buckling) and gas or oil tamponade. At the time of surgery, an undiluted vitreous sample was collected for pharmacokinetic and pharmacodynamics analyses, and an aqueous sample was collected for pharmacodynamic analysis. Additional safety visits were targeted for and generally conducted one day post-surgery, 7 days (±3 days) post-surgery, 14 (+4 days) days post-surgery, and Weeks 6, 9, 12 (±7 days each), and Week 24 (+14 days; study exit).

ICAM1 = experiment: Example 2: change in cytokine level in ocular fluid samples, ICAM1
Description: as §1, §2

IL1RA = experiment: Example 2: change in cytokine level in ocular fluid samples, IL1RA
Description: as §1, §2

MCP1 = experiment: Example 2: change in cytokine level in ocular fluid samples, MCP1
Description: as §1, §2

[2] = test system: patients with retinal detachment; experiment: Example 2: BCVA in retinal detachment patients, intravitreal injection followed by surgical repair; set-up: key to BCVA Snellen study eye: (HM) = hand motion; (CF) = counting fingers; conditions: for summary statistics for all patients, mean: doses 25 to 200 ug, baseline mean 1.86
Description: as §1, §2
Therefore, a volume of 0.05 or 0.1 mL was injected into the study eye. Patient participation was approximately 24 weeks (6 months): a single injection treatment and 24 weeks of follow-up.

[3] = test system: patients with retinal detachment; experiment: Example 2: safety, adverse event reporting
Description: as §1, §2
The following doses were evaluated: 25 microgram (ug) and 50 ug provided in vials with concentrations of 0.5 mg/mL and/or 2 mg/mL of Formula III. Therefore, a volume of 0.05 or 0.1 mL was injected into the study eye. Patient participation was approximately 24 weeks (6 months): a single injection treatment and 24 weeks of follow-up.
Planned determinations of dose limiting toxicity included consideration of the following events: • 1.

[4] = dose 25 ug (Table 1), individual patients
[5] = dose 50 ug (Table 1), individual patients
[6] = dose 100 ug (Table 1), individual patients
[7] = dose 200 ug (Table 1), individual patient

HHIYLGAVNYIY-NH2 [ONL1204]
change in best corrected visual acuity (BCVA) ([1]; compared to baseline BCVA, FIG. 1, 1 to 24 weeks post treatment): improvement in visual acuity was generally observed | visual outcomes (e.g., visual acuity) ([1]; doses comprising 25 ug and 50 ug, single intravitreal injection): showed an improvement in visual outcomes | Percent Change (%) from time of administering ONL1204 to surgery, IL18 (IL18; [4]): −60.5% and −22.5% and −50.8% | Percent Change (%) from time of administering ONL1204 to surgery, IL18 (IL18; [5]): 0% (2×) and −100% | Percent Change (%) from time of administering ONL1204 to surgery, IL18 (IL18; [6]): −33.7% and 0% and 66.0% | Percent Change (%) from time of administering ONL1204 to surgery, IL18 (IL18; [7]): 0% | Percent Change (%) from time of administering ONL1204 to surgery, ICAM1 (ICAM1; [4]): −82.4% and −42.7% and −86.2% | Percent Change (%) from time of administering ONL1204 to surgery, ICAM1 (ICAM1; [5]): 64.0% and −100% and 0% | Percent Change (%) from time of administering ONL1204 to surgery, ICAM1 (ICAM1; [6]): −43.9% and 24.9% and 22.7% | Percent Change (%) from time of administering ONL1204 to surgery, ICAM1 (ICAM1; [7]): 0% | Percent Change (%) from time of administering ONL1204 to surgery, IL1RA (IL1RA; [4]): −51.0% and −57.4% and −99.3% | Percent Change (%) from time of administering ONL1204 to surgery, IL1RA (IL1RA; [5]): −60.0% and −94.4% and −88.3% | Percent Change (%) from time of administering ONL1204 to surgery, IL1RA (IL1RA; [6]): 8.5% and −46.1% and −65.2% | Percent Change (%) from time of administering ONL1204 to surgery, IL1RA (IL1RA; [7]): −26.3% | Percent Change (%) from time of administering ONL1204 to surgery, MCP1 (MCP1; [4]): −41.4% and −6.02% and −35.9% | Percent Change (%) from time of administering ONL1204 to surgery, MCP1 (MCP1; [5]): −3.12% and −48.4% and 11.6% | Percent Change (%) from time of administering ONL1204 to surgery, MCP1 (MCP1; [6]): −9.5% and 78.5% and 500% | Percent Change (%) from time of administering ONL1204 to surgery, MCP1 (MCP1; [7]): −2.4% | change in cytokine levels (MCP 1, ICAM, IL IRA, and IL 18) from time of ONL1204 administration to surgery (MCP1; mean over patients of Table 7): mean decrease | summary statistics for all patients, mean ([2]; Week 6, n 14): 0.65 | summary statistics for all patients, mean ([2]; Week 9, n 13): 0.78 | summary statistics for all patients, mean ([2]; Week 24, n 13): 0.56 | visual outcomes, all patients receiving ONL1204 ([2]; also with greater than 10 days of central vision loss, 3 to 7 days from administration to surgery, range of detachment heights and extents): improved visual outcomes were observed for all patients receiving ONL1204 | visual outcomes (e.g., visual acuity) ([2]; retinal detachment patients, doses comprising 25 ug and 50 ug, with surgery): showed an improvement in visual outcomes | BCVA Snellen study eye ([2]; week 9, dose 100 ug, individual patients): HM | patients who experienced adverse events ([3]; 4 patients receiving 25 ug and 4 patients receiving 50 ug): 7 out of 8 | severity and relatedness of adverse events ([3]; 8 patients, 25 ug and 50 ug): Most were mild, and study procedure or surgery related | total number of adverse events ([3]; 8 patients, 25 ug and 50 ug): 20
